Key:
rice (Oryza sativa) = assay: Test C flooded paddy test; format: in vivo; conditions: Flood, scale 0 to 100
Description: (§1) At the same time, plants selected from these crop and weed species and also winter barley (Hordeum vulgare), blackgrass (Alopecurus myosuroides), canarygrass (Phalaris minor), chickweed (Stellaria media), downy brome (Bromus tectorum), green foxtail (Setaria viridis), Italian ryegrass (Lolium multiflorum), wheat (Triticum aestivum), wild oat (Avena fatua) and windgrass (Apera spica-venti) were treated with postemergence applications of some of the test chemicals formulated in the same manner. Plants ranged in height from 2 to 18 cm (1- to 4-leaf stage) for postemergence treatments. Plant species in the flooded paddy test consisted of rice (Oryza sativa), umbrella sedge (Cyperus difformis), duck salad (Heteranthera limosa) and barnyardgrass (Echinochloa crus-galli) grown to the 2-leaf stage for testing. Treated plants and controls were maintained in a greenhouse for 12 to 14 days, after which time all species were compared to controls and visually evaluated. Plant response ratings, summarized in Table C, are based on a scale of 0 to 100 where 0 is no effect and 100 is complete control. A dash (-) response means no test result.

[1] = test system: barnyardgrass (Echinochloa crus-galli); assay: Test C flooded paddy test; format: in vivo; conditions: Flood
Description: as §1

[2] = test system: duck salad (Heteranthera limosa); assay: Test C flooded paddy test; format: in vivo; conditions: Flood, scale 0 to 100
Description: as §1

[3] = test system: downy brome (Bromus tectorum); assay: Test C postemergence; format: in vivo
Summary of the method: (§2)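 Applications: preemergence onto seeded soil and postemergence onto 1- to 4-leaf seedlings, compound carried in non-phytotoxic solvent plus surfactant. Kept in greenhouse 12 to 14 days. Scored visually relative to untreated controls, 0 (no effect) to 100 (complete control).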

[4] = test system: winter barley (Hordeum vulgare); assay: Test C postemergence; format: in vivo
Summary of the method: as §2

[5] = test system: canarygrass (Phalaris minor); assay: Test C postemergence; format: in vivo
Summary of the method: as §2

[6] = test system: blackgrass (Alopecurus myosuroides); assay: Test C postemergence; format: in vivo
Summary of the method: as §2

[7] = test system: wheat (Triticum aestivum); assay: Test C postemergence; format: in vivo; conditions: for Wheat plant response rating: scale 0 to 100 (0 no effect, 100 complete control)
Summary of the method: as §2

[8] = test system: green foxtail (Setaria viridis); assay: Test C postemergence; format: in vivo; conditions: for Foxtail, Green plant response rating: scale 0 to 100 (0 no effect, 100 complete control)
Summary of the method: as §2

[9] = test system: windgrass (Apera spica-venti); assay: Test C postemergence; format: in vivo; conditions: for Windgrass plant response rating: scale 0 to 100 (0 no effect, 100 complete control)
Summary of the method: as §2

wild oat (Avena fatua) = assay: Test C postemergence; format: in vivo; conditions: for Oat, Wild plant response rating: scale 0 to 100 (0 no effect, 100 complete control)
Summary of the method: as §2

[10] = test system: Italian ryegrass (Lolium multiflorum); assay: Test C postemergence; format: in vivo; conditions: for Ryegrass, Italian plant response rating: scale 0 to 100 (0 no effect, 100 complete control)
Summary of the method: as §2

[11] = 500 g ai/ha, scale 0 to 100 (0 no effect, 100 complete control)
[12] = 62 g ai/ha, scale 0 to 100 (0 no effect, 100 complete control)

CNc1nc(C2CC2)nc(C(=O)OC)c1Br [Compound 5]
20: Plant response rating, Barnyardgrass [1, 11]
0: Plant response rating, Rice (rice (Oryza sativa); 62 g ai/ha) | Plant response rating, Rice (rice (Oryza sativa); 125 g ai/ha) | Plant response rating, Rice (rice (Oryza sativa); 250 g ai/ha) | Plant response rating, Rice (rice (Oryza sativa); 500 g ai/ha) | Plant response rating, Barnyardgrass ([1]; 62 g ai/ha, scale 0 to 100) | Plant response rating, Barnyardgrass ([1]; 125 g ai/ha, scale 0 to 100) | Plant response rating, Barnyardgrass ([1]; 250 g ai/ha, scale 0 to 100) | Plant response rating, Ducksalad ([2]; 62 g ai/ha) | Plant response rating, Ducksalad ([2]; 125 g ai/ha) | Plant response rating, Ducksalad ([2]; 250 g ai/ha) | Plant response rating, Ducksalad ([2]; 500 g ai/ha)

CCOC(=O)c1nc(-c2ccccc2)nc(N)c1Br [Compound 18]
110 to 111 °C: melting point

COC(=O)c1nc(C2CC2)nc(N=CN(C)C)c1Br [Compound 19]
35: Barley plant response rating [4, 12] | Plant response rating (scale of 0 to 100), Foxtail, Green ([8]; 31 g ai/ha)
45: Plant response rating, Barley ([4]; 125 g ai/ha, scale 0 to 100) | Plant response rating (scale of 0 to 100), Canarygrass ([5]; 16 g ai/ha) | Wheat plant response rating ([7]; 125 g ai/ha) | Foxtail, Green plant response rating ([8]; 62 g ai/ha)
25: Plant response rating (scale of 0 to 100), Barley ([4]; 16 g ai/ha) | Plant response rating (scale of 0 to 100), Barley ([4]; 31 g ai/ha)
70: Ryegrass, Italian plant response rating ([10]; 125 g ai/ha)
65: Plant response rating, Canarygrass ([5]; 125 g ai/ha, scale 0 to 100) | Blackgrass plant response rating [6, 12] | Plant response rating, Blackgrass ([6]; 125 g ai/ha, scale 0 to 100) | Oat, Wild plant response rating (wild oat (Avena fatua); 125 g ai/ha) | Plant response rating (scale of 0 to 100), Ryegrass, Italian ([10]; 16 g ai/ha) | Plant response rating (scale of 0 to 100), Ryegrass, Italian ([10]; 31 g ai/ha) | Ryegrass, Italian plant response rating ([10]; 62 g ai/ha)
40: Plant response rating, Ducksalad ([2]; 125 g ai/ha) | Wheat plant response rating ([7]; 62 g ai/ha) | Plant response rating (scale of 0 to 100), Windgrass ([9]; 16 g ai/ha) | Plant response rating (scale of 0 to 100), Windgrass ([9]; 31 g ai/ha) | Plant response rating (scale of 0 to 100), Oat, Wild (wild oat (Avena fatua); 16 g ai/ha) | Plant response rating (scale of 0 to 100), Oat, Wild (wild oat (Avena fatua); 31 g ai/ha)
0: Plant response rating, Rice (rice (Oryza sativa); 62 g ai/ha) | Plant response rating, Rice (rice (Oryza sativa); 125 g ai/ha) | Plant response rating, Barnyardgrass ([1]; 62 g ai/ha, scale 0 to 100) | Plant response rating, Barnyardgrass ([1]; 125 g ai/ha, scale 0 to 100) | Plant response rating, Barnyardgrass ([1]; 250 g ai/ha, scale 0 to 100) | Plant response rating (scale of 0 to 100), Bromegrass, Downy ([3]; 16 g ai/ha) | Plant response rating (scale of 0 to 100), Bromegrass, Downy ([3]; 31 g ai/ha)
60: Plant response rating, Barnyardgrass [1, 11] | Plant response rating, Ducksalad ([2]; 250 g ai/ha) | Plant response rating, Ducksalad ([2]; 500 g ai/ha) | Plant response rating, Bromegrass, Downy ([3]; 125 g ai/ha, scale 0 to 100) | Plant response rating (scale of 0 to 100), Canarygrass ([5]; 31 g ai/ha) | Canarygrass plant response rating [5, 12] | Plant response rating (scale of 0 to 100), Blackgrass ([6]; 31 g ai/ha) | Foxtail, Green plant response rating ([8]; 125 g ai/ha) | Windgrass plant response rating ([9]; 62 g ai/ha) | Windgrass plant response rating ([9]; 125 g ai/ha) | Oat, Wild plant response rating (wild oat (Avena fatua); 62 g ai/ha)
20: Plant response rating, Rice (rice (Oryza sativa); 500 g ai/ha) | Plant response rating, Ducksalad ([2]; 62 g ai/ha)
30: Plant response rating (scale of 0 to 100), Wheat ([7]; 31 g ai/ha) | Plant response rating (scale of 0 to 100), Foxtail, Green ([8]; 16 g ai/ha)
10: Plant response rating, Rice (rice (Oryza sativa); 250 g ai/ha) | Plant response rating (scale of 0 to 100), Wheat ([7]; 16 g ai/ha)
50: Bromegrass, Downy plant response rating [3, 12]
55: Plant response rating (scale of 0 to 100), Blackgrass ([6]; 16 g ai/ha)

COC(=O)c1nc(C2CC2)nc(N)c1I [Compound 7]
145 to 146 °C: melting point

CCCCOC(=O)c1nc(C2CC2)nc(N)c1Br [Compound 16]
85: Plant response rating, Ducksalad ([2]; 500 g ai/ha)
65: Plant response rating, Rice (rice (Oryza sativa); 500 g ai/ha) | Plant response rating, Ducksalad ([2]; 62 g ai/ha) | Plant response rating, Ducksalad ([2]; 125 g ai/ha)
15: Plant response rating, Barnyardgrass ([1]; 250 g ai/ha, scale 0 to 100)
0: Plant response rating, Rice (rice (Oryza sativa); 62 g ai/ha) | Plant response rating, Rice (rice (Oryza sativa); 125 g ai/ha) | Plant response rating, Rice (rice (Oryza sativa); 250 g ai/ha) | Plant response rating, Barnyardgrass ([1]; 62 g ai/ha, scale 0 to 100) | Plant response rating, Barnyardgrass ([1]; 125 g ai/ha, scale 0 to 100)
50: Plant response rating, Barnyardgrass [1, 11]
75: Plant response rating, Ducksalad ([2]; 250 g ai/ha)

CCOC(=O)c1nc(-c2ccc(Cl)cc2)nc(N)c1Br [Compound 37]
100: Plant response rating, Ducksalad ([2]; 250 g ai/ha) | Plant response rating, Ducksalad ([2]; 500 g ai/ha)
0: Plant response rating, Rice (rice (Oryza sativa); 62 g ai/ha) | Plant response rating, Rice (rice (Oryza sativa); 125 g ai/ha) | Plant response rating, Rice (rice (Oryza sativa); 250 g ai/ha) | Plant response rating, Rice (rice (Oryza sativa); 500 g ai/ha) | Plant response rating, Barnyardgrass ([1]; 62 g ai/ha, scale 0 to 100) | Plant response rating, Barnyardgrass ([1]; 125 g ai/ha, scale 0 to 100) | Plant response rating, Barnyardgrass ([1]; 250 g ai/ha, scale 0 to 100) | Plant response rating, Barnyardgrass [1, 11]
95: Plant response rating, Ducksalad ([2]; 62 g ai/ha) | Plant response rating, Ducksalad ([2]; 125 g ai/ha)
